In patent US5424426A, “Dithiolanylglycine-containing HIV protease inhibitors of the hydroxyethylene isostere type” (Bayer Aktiengesellschaft, priority 1992, dated 1995):
Counter-ions that a name gives are not always drawn.

Key:
HIV protease (HIV-1) = target: T1, HIV protease (HIV-1) (Human immunodeficiency virus type 1 group M subtype B, UniProt P04585); experiment: HIV-specific protease enzyme test (RP-HPLC analysis of synthetic peptide cleavage); assay type: biochemical; conditions: purified HIV protease, synthetic Gag cleavage-site peptide
T1 construct: purified HIV protease was incubated with synthetic peptide
Procedure: The results of the examples listed below were determined by the HIV test system described in the following references [cf. Hansen, J., Billich, S., Schulze, T., Sukrow, S. and Molling, K. (1988), EMBO Journal, Vol. 7, No. 6, pp. 1785-1791]: purified HIV protease was incubated with synthetic peptide which imitates a cleavage site in the Gag precursor protein and represents an in vivo cleavage site of the HIV protease. The resulting cleavage products of the synthetic peptide were analysed by means of reverse phase high performance liquid chromatography (RP-HPLC). The IC50 values given relate to the substance concentration which causes a 50% strength inhibition of the protease activity under the above-mentioned test conditions.

HIV [1] = experiment: HIV infection in cell culture, syncytia formation in PBLs; assay type: cell-based; conditions: HIV-infected normal human blood lymphocytes (PBLs); 50% suppression of virus-induced syncytia
Procedure: (§1) The HIV test was carried out with slight modifications by the method of Pauwels et al. [cf. Journal of Virological Methods 20, (1988), 309-321].
Normal human blood lymphocytes (PBLs) were enriched on Ficoll-Hypaque and stimulated in RPMI 1640, 20% foetal calf serum containing phytohaemagglutinin (90 μg/ml) and interleukin-2 (40 U/ml). For infection with the infectious HIV, PBLs were pelleted and the cell pellet was then suspended in 1 ml of HIV virus adsorption solution and incubated for 1 hour at 37° C.
The virus adsorption solution was centrifuged and the infected cell pellet taken up in growth medium so that a concentration of 1×10^5 cells per ml was established. The cells infected in such a way were pipetted at 1×10^4 cells/well into the wells of 96-well microtitre plates.
The first vertical row of the microtitre plate contained only growth medium and cells which had not been infected, but otherwise had been treated exactly as described above (cell control). The second vertical row of the microtitre plate contained only HIV-infected cells (virus control) in growth medium. The other wells contained the compounds according to the invention in different concentrations, starting from the wells of the 3rd vertical row of the microtitre plate, from which the test substances were diluted 2^10 times in steps of two.
The test batches were incubated at 37° C. until in the untreated virus control the syncytia formation typical of HIV occurred (between day 3 and 6 after infection), which was then assessed by microscopy.
(§2) The IC50 values were determined as the concentrations of the […] at which 50% (about 10 syncytia) of the virus-induced syncytia were suppressed by the treatment with the compound according to the invention.

HIV [2] = experiment: HIV infection in cell culture, H-9 cells; assay type: cell-based; conditions: HIV-infected H-9 cells
Procedure: as §1, §2

Row | Compound | IC50 (HIV protease (HIV-1)) [nM] | IC50 (HIV [1]) [nM] | IC50 (HIV [2]) [nM]
1 | 1-{(2R,4S,5S)-5-[(2S)-3-(tert-Butylsulphonyl)-2-(1-naphthylmethyl)propanoyl]-(2R)-N-(tert-butoxycarbonyl)-2-amino-2-[2-(1,3-dithiolan-2-yl)ethanoyl]amino-6-cyclohexyl-4-hydroxy-2-(1-methyl)ethyl-hexanoyl}-S-isoleucinyl-2-pyridylamide [Example 8] | 1.2 to 9 | 1000 | –
2 | 1-{(2R,S,4S,5S) -5-[(2R)-N-(tert-Butoxycarbonyl)-2-amino-2-[2-(1,3-dithiolan-2-yl)]ethanoyl]amino-6-cyclohexyl-4-hydroxy-2-(1-methyl)ethyl-hexanoyl}-S-isoleucinyl2-pyridylamide [Example 1] | 1.4 to 9 | > 1000 | –
3 | 1-}(2S,4S,5S)-5-[(2S)-3-(tert-Butylsulphonyl)-2-(1-naphthylmethyl)propanoyl]-(2R)-N-(tert-butoxycarbonyl)-2-amino-2-[2-(1,3-dithiolan-2-yl)]ethanoyl]amino-6-cyclohexyl-4-hydroxy-2-(1-methyl)ethyl-hexanoyl}-S-isoleucinyl-2-pyridylamide [Example 9] | 1 to 9 | 40 | 11
4 | CC[C@H](C)[C@H](NC(=O)C(C[C@H](O)[C@H](CC1CCCCC1)NC(=O)[C@@H](N)C1SCCS1)C(C)C)C(=O)Nc1ccccn1 (stereo partly drawn) [Example 2, 1-{(2R,S;4S,5S)-5-[(2R)-2-Amino-2-[2-(1,3-dithiolan-2-yl)]ethanoyl]-amino-6-cyclohexyl-4-hydroxy-2-(1-methyl)ethyl-hexanoyl}-S-isoleucinyl-2-pyridylamide dihydrochloride] | 1.3 to 9 | 10000 | –
5 | CC[C@H](C)[C@H](NC(=O)[C@H](Cc1ccccc1)C[C@H](O)[C@H](CC1CCCCC1)NC(=O)[C@@H](NC(=O)OC(C)(C)C)C1SCCS1)C(=O)Nc1ccccn1 [Example 3, 1-{(2R,4S,5S)-5-[(2R)-N-(tert-Butoxycarbonyl)-2-amino-2-[2-(1,3-dithiolan-2-yl)]ethanoyl]amino-6-cyclohexyl-4-hydroxy-2-(phenyl)methyl-hexanoyl}-S-isoleucinyl-2-pyridylamide] | 13 to 80 | 1000 | –
6 | CC[C@H](C)[C@H](NC(=O)[C@@H](Cc1ccccc1)C[C@H](O)[C@H](CC1CCCCC1)NC(=O)[C@@H](NC(=O)OC(C)(C)C)C1SCCS1)C(=O)Nc1ccccn1 [Example 4, 1-{(2S,4S,5S)-5-[(2R)-N-(tert-Butoxycarbonyl)-2-amino-2-[2-(1,3-dithiolan-2-yl)]ethanoyl]amino-6-cyclohexyl-4-hydroxy-2-(phenyl)methyl-hexanoyl}-S-isoleucinyl2-pyridylamide] | 16 to 80 | 1000 | –
7 | C=CCC(C[C@H](O)[C@H](CC1CCCCC1)NC(=O)[C@@H](NC(=O)OC(C)(C)C)C1SCCS1)C(=O)N[C@H](C(=O)Nc1ccccn1)[C@@H](C)CC (stereo partly drawn) [Example 5, 1-{(2R,S,4S,5S)-5-[(2R)-N-(tert-Butoxycarbonyl)-2-amino-2-[2-(1,3-dithiolan-2-yl)]ethanoyl]amino-6-cyclohexyl-4-hydroxy-2-(2-propenyl)-hexanoyl}-S-isoleucinyl-2-pyridylamide] | 1.4 to 9 | 400 | –
